Peptide text beside a SMILES is read from it.
Assays:
[1] = system: human red blood cells (hRBC); experiment: Hemolysis of human red blood cells; format: cell-based; details: red cells of human, 1 h
In short: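 Percent hemolysis is OD540 of peptide-treated supernatant relative to water-lysed cells. Each peptide was tested at 200 μg/mL against 20% (v/v) washed human erythrocytes. Incubation was 1 h at 37 °C, 300 rpm.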

[2] = system: Klebsiella pneumoniae SSI3010; details: SSI3010
In short: (§1)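 Standardized inocula (0.5 McFarland in saline, then diluted in MHII broth to approximately 5×10^5 CFU/mL) were exposed to two-fold dilution series of each peptide in the presence of polysorbate 80 (0.002% final).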

[3] = system: Escherichia coli MCR-1 Af 45; details: Mueller-Hinton broth II, 18-20 hours at 35° C.
In short: as §1

[4] = system: Escherichia coli ATCC 25922; details: ATCC 25922
In short: as §1

Row | SMILES | Hemolysis at 0.2 g/L [1] | Klebsiella pneumoniae SSI3010 MIC [2] | Escherichia coli MCR-1 Af 45 MIC [3] | Escherichia coli ATCC 25922 MIC [4]
1 | CC[C@H](C)[C@H](NC(=O)[C@@H]1C[C@@H](O)CN1C(=O)[C@@H](N)C(C)C)C(=O)N[C@@H](Cc1ccc(O)cc1)C(=O)N[C@@H](Cc1ccc(O)cc1)C(=O)N[C@@H]1C(=O)N[C@@H](CC(N)=O)C(=O)N[C@@H](CCCNC(=N)N)C(=O)N[C@@H](CCN)C(=O)N[C@@H]([C@@H](C)O)C(=O)N[C@H](CCN)C(=O)N[C@@H](CCCCN)C(=O)N[C@H](C(=O)N[C@@H](CCN)C(=O)N[C@@H](CCCNC(=N)N)C(=O)N[C@@H](Cc2ccc(O)cc2)C(=O)O)CSSC1(C)C [Example 155] (HELM PEPTIDE1{V.[Hyp].I.Y.Y.[Pen].N.R.[Dab].T.[NCC[C@@H](N[*:1])C(=O)[*:2]].K.C.[Dab].R.Y}$PEPTIDE1,PEPTIDE1,6:R3-13:R3$$$V2.0) | 0% | 0.25 µg/mL | 0.0625 µg/mL | 0.125 µg/mL
2 | CC[C@H](C)[C@H](NC(=O)[C@@H]1C[C@@H](O)CN1C(=O)[C@@H](N)C(C)C)C(=O)N[C@@H](CC(C)C)C(=O)N[C@@H](Cc1ccc(O)cc1)C(=O)N[C@@H]1C(=O)N[C@@H](CC(N)=O)C(=O)N[C@@H](CCCNC(=N)N)C(=O)N[C@@H](CCN)C(=O)N[C@@H]([C@@H](C)O)C(=O)N[C@H](CCN)C(=O)N[C@@H](CCCCN)C(=O)N[C@H](C(=O)N[C@@H](CCN)C(=O)N[C@@H](CCCNC(=N)N)C(=O)N[C@@H](Cc2ccc(O)cc2)C(=O)O)CSSC1(C)C [Example 156] (HELM PEPTIDE1{V.[Hyp].I.L.Y.[Pen].N.R.[Dab].T.[NCC[C@@H](N[*:1])C(=O)[*:2]].K.C.[Dab].R.Y}$PEPTIDE1,PEPTIDE1,6:R3-13:R3$$$V2.0) | 0% | 0.5 µg/mL | 0.25 µg/mL | 0.25 µg/mL
3 | CC[C@H](C)[C@H](NC(=O)[C@@H]1C[C@@H](O)CN1C(=O)[C@@H](N)C(C)C)C(=O)N[C@@H](CC(N)=O)C(=O)N[C@@H](Cc1ccc(O)cc1)C(=O)N[C@@H]1C(=O)N[C@@H](CC(N)=O)C(=O)N[C@@H](CCCNC(=N)N)C(=O)N[C@@H](CCN)C(=O)N[C@@H]([C@@H](C)O)C(=O)N[C@H](CCN)C(=O)N[C@@H](CCCCN)C(=O)N[C@H](C(=O)N[C@@H](CCN)C(=O)N[C@@H](CCCNC(=N)N)C(=O)N[C@@H](Cc2ccc(O)cc2)C(=O)O)CSSC1(C)C [Example 157] (HELM PEPTIDE1{V.[Hyp].I.N.Y.[Pen].N.R.[Dab].T.[NCC[C@@H](N[*:1])C(=O)[*:2]].K.C.[Dab].R.Y}$PEPTIDE1,PEPTIDE1,6:R3-13:R3$$$V2.0) | 0% | 0.5 µg/mL | 0.125 µg/mL | 0.125 µg/mL
4 | CC[C@H](C)[C@H](NC(=O)[C@@H]1C[C@@H](O)CN1C(=O)[C@@H](N)C(C)C)C(=O)N[C@@H](CCN)C(=O)N[C@@H](Cc1ccc(O)cc1)C(=O)N[C@@H]1C(=O)N[C@@H](CC(N)=O)C(=O)N[C@@H](CCCNC(=N)N)C(=O)N[C@@H](CCN)C(=O)N[C@@H]([C@@H](C)O)C(=O)N[C@H](CCN)C(=O)N[C@@H](CCCCN)C(=O)N[C@H](C(=O)N[C@@H](CCN)C(=O)N[C@@H](CCCNC(=N)N)C(=O)N[C@@H](Cc2ccc(O)cc2)C(=O)O)CSSC1(C)C [Example 158] (HELM PEPTIDE1{V.[Hyp].I.[Dab].Y.[Pen].N.R.[Dab].T.[NCC[C@@H](N[*:1])C(=O)[*:2]].K.C.[Dab].R.Y}$PEPTIDE1,PEPTIDE1,6:R3-13:R3$$$V2.0) | 0% | 0.5 µg/mL | 0.125 µg/mL | 0.125 µg/mL
5 | CC[C@H](C)[C@H](NC(=O)[C@@H]1C[C@@H](O)CN1C(=O)[C@@H](N)C(C)C)C(=O)N[C@@H](CCCCN)C(=O)N[C@@H](Cc1ccc(O)cc1)C(=O)N[C@@H]1C(=O)N[C@@H](CC(N)=O)C(=O)N[C@@H](CCCNC(=N)N)C(=O)N[C@@H](CCN)C(=O)N[C@@H]([C@@H](C)O)C(=O)N[C@H](CCN)C(=O)N[C@@H](CCCCN)C(=O)N[C@H](C(=O)N[C@@H](CCN)C(=O)N[C@@H](CCCNC(=N)N)C(=O)N[C@@H](Cc2ccc(O)cc2)C(=O)O)CSSC1(C)C [Example 159] (HELM PEPTIDE1{V.[Hyp].I.K.Y.[Pen].N.R.[Dab].T.[NCC[C@@H](N[*:1])C(=O)[*:2]].K.C.[Dab].R.Y}$PEPTIDE1,PEPTIDE1,6:R3-13:R3$$$V2.0) | 0% | 0.5 µg/mL | 0.25 µg/mL | 0.125 µg/mL
6 | CC[C@H](C)[C@H](NC(=O)[C@@H]1C[C@@H](O)CN1C(=O)[C@@H](N)C(C)C)C(=O)N[C@H](C(=O)N[C@@H](Cc1c[nH]c2ccccc12)C(=O)N[C@@H]1C(=O)N[C@@H](CC(N)=O)C(=O)N[C@@H](CCCNC(=N)N)C(=O)N[C@@H](CCN)C(=O)N[C@@H]([C@@H](C)O)C(=O)N[C@H](CCN)C(=O)N[C@@H](CCCCN)C(=O)N[C@H](C(=O)N[C@@H](CCN)C(=O)N[C@@H](CCCNC(=N)N)C(=O)N[C@@H](Cc2ccc(O)cc2)C(=O)O)CSSC1(C)C)[C@@H](C)O [Example 160] (HELM PEPTIDE1{V.[Hyp].I.T.W.[Pen].N.R.[Dab].T.[NCC[C@@H](N[*:1])C(=O)[*:2]].K.C.[Dab].R.Y}$PEPTIDE1,PEPTIDE1,6:R3-13:R3$$$V2.0) | 0% | 0.5 µg/mL | 0.25 µg/mL | 0.25 µg/mL
7 | CC[C@H](C)[C@H](NC(=O)[C@@H]1C[C@@H](O)CN1C(=O)[C@@H](N)C(C)C)C(=O)N[C@H](C(=O)N[C@@H](Cc1ccc(O)cc1)C(=O)N[C@@H]1C(=O)N[C@@H](C)C(=O)N[C@@H](CCCNC(=N)N)C(=O)N[C@@H](CCN)C(=O)N[C@@H]([C@@H](C)O)C(=O)N[C@H](CCN)C(=O)N[C@@H](CCCCN)C(=O)N[C@H](C(=O)N[C@@H](CCN)C(=O)N[C@@H](CCCNC(=N)N)C(=O)N[C@@H](Cc2ccc(O)cc2)C(=O)O)CSSC1(C)C)[C@@H](C)O [Example 161] (HELM PEPTIDE1{V.[Hyp].I.T.Y.[Pen].A.R.[Dab].T.[NCC[C@@H](N[*:1])C(=O)[*:2]].K.C.[Dab].R.Y}$PEPTIDE1,PEPTIDE1,6:R3-13:R3$$$V2.0) | 0% | 0.5 µg/mL | 0.125 µg/mL | 0.25 µg/mL
8 | CC[C@H](C)[C@H](NC(=O)[C@@H]1C[C@@H](O)CN1C(=O)[C@@H](N)C(C)C)C(=O)N[C@H](C(=O)N[C@@H](Cc1ccc(O)cc1)C(=O)N[C@@H]1C(=O)N[C@@H](CC(C)C)C(=O)N[C@@H](CCCNC(=N)N)C(=O)N[C@@H](CCN)C(=O)N[C@@H]([C@@H](C)O)C(=O)N[C@H](CCN)C(=O)N[C@@H](CCCCN)C(=O)N[C@H](C(=O)N[C@@H](CCN)C(=O)N[C@@H](CCCNC(=N)N)C(=O)N[C@@H](Cc2ccc(O)cc2)C(=O)O)CSSC1(C)C)[C@@H](C)O [Example 162] (HELM PEPTIDE1{V.[Hyp].I.T.Y.[Pen].L.R.[Dab].T.[NCC[C@@H](N[*:1])C(=O)[*:2]].K.C.[Dab].R.Y}$PEPTIDE1,PEPTIDE1,6:R3-13:R3$$$V2.0) | 0% | 0.25 µg/mL | 0.125 µg/mL | 0.25 µg/mL
9 | CC[C@H](C)[C@@H]1NC(=O)[C@@H](NC(=O)[C@H](Cc2ccc(O)cc2)NC(=O)[C@@H](NC(=O)[C@@H](NC(=O)[C@@H]2C[C@@H](O)CN2C(=O)[C@@H](N)C(C)C)[C@@H](C)CC)[C@@H](C)O)C(C)(C)SSC[C@@H](C(=O)N[C@@H](CCN)C(=O)N[C@@H](CCCNC(=N)N)C(=O)N[C@@H](Cc2ccc(O)cc2)C(=O)O)NC(=O)[C@H](CCCCN)NC(=O)[C@@H](CCN)NC(=O)[C@H]([C@@H](C)O)NC(=O)[C@H](CCN)NC(=O)[C@H](CCCNC(=N)N)NC1=O [Example 163] (HELM PEPTIDE1{V.[Hyp].I.T.Y.[Pen].I.R.[Dab].T.[NCC[C@@H](N[*:1])C(=O)[*:2]].K.C.[Dab].R.Y}$PEPTIDE1,PEPTIDE1,6:R3-13:R3$$$V2.0) | 0% | 0.5 µg/mL | 0.125 µg/mL | 0.125 µg/mL
10 | CC[C@H](C)[C@H](NC(=O)[C@@H]1C[C@@H](O)CN1C(=O)[C@@H](N)C(C)C)C(=O)N[C@H](C(=O)N[C@@H](Cc1ccc(O)cc1)C(=O)N[C@@H]1C(=O)N[C@@H](CO)C(=O)N[C@@H](CCCNC(=N)N)C(=O)N[C@@H](CCN)C(=O)N[C@@H]([C@@H](C)O)C(=O)N[C@H](CCN)C(=O)N[C@@H](CCCCN)C(=O)N[C@H](C(=O)N[C@@H](CCN)C(=O)N[C@@H](CCCNC(=N)N)C(=O)N[C@@H](Cc2ccc(O)cc2)C(=O)O)CSSC1(C)C)[C@@H](C)O [Example 164] (HELM PEPTIDE1{V.[Hyp].I.T.Y.[Pen].S.R.[Dab].T.[NCC[C@@H](N[*:1])C(=O)[*:2]].K.C.[Dab].R.Y}$PEPTIDE1,PEPTIDE1,6:R3-13:R3$$$V2.0) | 0% | 0.25 µg/mL | 0.25 µg/mL | 0.125 µg/mL

— patent US20230295234A1, “ANTIMICROBIAL PEPTIDOMIMETICS” (SPEXIS AG, priority 2020, published 2023)
